Tested on: female NMRI mice
Assay: Anorectic action: milk consumption of fasted mice after oral administration
Format: in vivo, mouse
Protocol: The efficacy of the compounds was tested as follows:
The anorectic action was tested on female NMRI mice. After withdrawal of food for 24 hours, a test preparation of the invention was administered via a stomach tube. Kept individually and with free access to drinking water, the animals were offered evaporated milk 30 minutes after the administration of the preparation. The consumption of evaporated milk was determined half-hourly for 1.5 hours and the general condition of the animals was observed. The measured milk consumption was compared with that of untreated control animals.

SMILES: OC1c2cc(Cl)ccc2C2(O)N=C(c3ccccc3)SC12 (centres unmarked) [Example 1, 6-Chloro-2-phenyl-8,8a-dihydroindeno[1,2-d]thiazole-3a,8-diol]
- cumulated milk consumption of the treated animals (food withdrawn for 24 hours, oral dose 30 mg/kg via stomach tube, evaporated milk offered 30 minutes after administration, consumption determined half-hourly for 1.5 hours): 5/1.06 ml
- Reduction of the cumulated milk consumption in % of the control (oral dose 30 mg/kg, compared to untreated control animals, 1.5 hours): 31%

— patent publication US6410577B1, “Substituted 8,8a-dihydro-3ah-indeno[1,2-d]thiazoles, processes for their preparation and their use as medicaments” (Aventis Pharma Deutschland GmbH, priority 2000, dated 2002)
